The values that follow come from patent US20240034731A1, “AZA-QUINAZOLINE COMPOUNDS AND METHODS OF USE” (Iambic Therapeutics, Inc., priority 2022, published 2024).

One test has as its target CDK1/Cyclin B1 (Homo sapiens (Human), UniProt P06493). The test is described as follows: CDK1/Cyclin B1 ADP-Glo Kinase Assay. Format: biochemical. Particulars: ADP-Glo, 80 uM ATP; read-out: CDK1 Cyclin B1 IC50. How it is done:
CDK1/Cyclin B1 ADP-Glo Kinase Assay
(§1) The purpose of CDK1/Cyclin B1 assay is to evaluate the inhibition (% inhibition and IC50 values) of small molecule inhibitors by using a Luminescent based ADP-Glo assay. CDK1/Cyclin B1 catalyzes the production of ADP from ATP. ADP-Glo assay monitors ADP producing biochemical reactions. ADP-Glo is performed in 2 steps upon completion of kinase reaction: a combined termination of kinase reaction and depletion of remaining ATP in the first step, and conversion of generated ADP to ATP and the newly produced ATP to light output using luciferase/luciferin reaction in the second step. The luminescent signal generated is proportional to the ADP concentration produced and is correlated with the kinase activity. CDK1/Cyclin B1 was purchased from Carna (Cat 04-102). […] The assay was initiated with the addition of ATP-containing substrate solution, following a 30-minute pre-incubation of enzyme and inhibitor at room temperature in the reaction mixture. The reaction was stopped after 90 minutes at room temperature by the addition of 10 uL of ADP-GLO Reagent. After a 90 minute incubation, 20 uL of Kinase Detection Reagent was added. Samples were incubated for 40 minutes, after which plate well luminescence was measured on a Envision microplate reader. The IC50 determinations were made from a plot of the fractional velocity as a function of inhibitor concentration fit to the 4 parameters IC50 equation.
For orientation: In ADP-Glo the light output rises with the ADP produced.

A further test concerns the target CDK6/Cyclin D3 (Homo sapiens (Human), UniProt Q00534). The test is described as follows: CDK6/Cyclin D3 ADP-Glo Kinase Assay. It is filed as biochemical. Particulars: 100 uM ATP, read-out: CDK6/ CyclinD3 IC50. How it is done: CDK6/Cyclin D3 ADP-Glo Kinase Assay
The purpose of the CDK6/Cyclin D3 assay is to evaluate the inhibition (% inhibition and IC50 values) in the presence of small molecule inhibitors by using a Luminescent based ADP-Glo assay. CDK6/Cyclin D3 catalyzes the production of ADP from ATP. ADP-Glo assay monitors ADP producing biochemical reactions. ADP-Glo is performed in 2 steps upon completion of kinase reaction: a combined termination of kinase reaction and depletion of remaining ATP in the first step, and conversion of generated ADP to […] and the newly produced ATP to light output using luciferase/luciferin reaction in the second step. The luminescent signal generated is proportional to the ADP concentration produced and is correlated with the kinase activity CDK6/Cyclin D3 was purchased from Carna. […] The assay was initiated with the addition of ATP-containing substrate solution, following a 30-minute pre-incubation of enzyme and inhibitor at room temperature in the reaction mixture. The reaction was stopped after 90 minutes at room temperature by the addition of 10 uL of ADP-GLO Reagent. After a 90-minute incubation, 20 uL of Kinase Detection Reagent was added. Samples were incubated for 40 minutes, after which plate well luminescence was measured on a Envision microplate reader. The IC50 determinations were made from a plot of the fractional velocity as a function of inhibitor concentration fit to the 4 parameters IC50 equation.

The subject of another test is OVCAR-3 cells. The test is described as follows: Cell Growth Inhibition, OVCAR-3 (CellTiterGlo, 6 days). It is filed as cell-based. Particulars: Homo sapiens, 144 h, OVCAR-3, 6-day treatment. The source says: (§2) MCF-7 and OVCAR-3 cells were used to evaluate the anti-proliferation activity of the CDK inhibitors. MCF-7 (ATCC, HTB-22) cells are epithelial cells from a patient with ER+ metastatic adenocarcinoma. OVCAR-3 (ATCC, HTB-161) cells were derived from malignant ascites of a patient with ovarian cancer and are known to have CCNE1 amplification. Both cell lines were maintained in RPMI media supplemented with 10% fetal bovine serum. For cell growth inhibition assay, CDK inhibitors in DMSO solution were dispensed with either Echo 655 (Beckman Coulter) or Tecan D300e (HP) into 384-well plates (Corning #3765) and the 384-well plates were UV-sterilized prior to the assay. The inhibitors were typically tested in the 10-10,000 nM concentration range with half-log serial dilutions. MCF-7 or OVCAR-3 (500 cells/30 μL/well) were added to each well using Multidrop Combi (ThermoFisher) using standard cassettes. The assay plates with cells were cultured at 37° C., 5% CO2 for 6 days. At the end of the 6-day treatment, 30 μL of CellTiterGlo 2.0 (Promega) was added to each well and the luminescent signal was read using CLARIOstar plus (BMG). The percentage of cell growth inhibition (% CGI) was calculated using the following formula 00 CGI=100-100×luminescencesampie/luminescencecontroi. The half maximal inhibitory concentration (IC50) was determined by nonlinear curve fitting (four parameters, variable slope).

For another test, the system named is MCF-7 cells. In words: Cell Growth Inhibition, MCF-7 (CellTiterGlo, 6 days). Format: cell-based. Particulars: Homo sapiens, MCF7, 144 h, MCF-7, 6-day treatment.
Description: as §2
In general terms: In ATP-based viability assays light output follows the ATP content of the culture.

The target of a further test is CDK2/Cyclin E1 (Homo sapiens (Human), UniProt P24941). The test is described as follows: CDK2/Cyclin E1 Full length ADP-Glo Kinase Assay. It is filed as biochemical. Particulars: 20 uM ATP, read-out: CDK2/ CyclinE1 IC50. How it is done:
CDK2/Cyclin E1 Full length ADP-Glo Kinase Assay
as §1, with “of CDK2/Cyclin E1” for “of CDK1/Cyclin B1”, “assay. CDK2/Cyclin E1 full length” for “assay. CDK1/Cyclin B1”, “activity. CDK2/Cyclin E1” for “activity. CDK1/Cyclin B1”, “from Eurofins” for “from Carna”, “(Cat 14-475M).” for “(Cat 04-102).”

The target in the next test is CDK4/Cyclin D1 (Homo sapiens (Human), UniProt P11802). In words: CDK4/Cyclin D1 CHEF Assay (AQT0258 peptide). Particulars: 200 uM ATP, read-out: CDK4/ CyclinD1 AQT IC50. Format: biochemical. The source says: CDK4/Cyclin D1 CHEF Assay
Chain of CDK4/Cyclin D1 (P11802 whole entry): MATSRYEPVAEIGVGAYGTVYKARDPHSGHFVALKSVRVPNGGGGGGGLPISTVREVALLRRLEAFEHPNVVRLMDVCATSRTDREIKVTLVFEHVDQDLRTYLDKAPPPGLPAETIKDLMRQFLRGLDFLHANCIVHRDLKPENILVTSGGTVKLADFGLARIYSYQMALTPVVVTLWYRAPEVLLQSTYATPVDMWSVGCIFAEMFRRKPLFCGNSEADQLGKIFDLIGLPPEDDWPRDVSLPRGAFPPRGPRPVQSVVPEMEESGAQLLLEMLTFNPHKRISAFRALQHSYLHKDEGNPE
Chain of CDK4/Cyclin D1 (P24385 whole entry partner): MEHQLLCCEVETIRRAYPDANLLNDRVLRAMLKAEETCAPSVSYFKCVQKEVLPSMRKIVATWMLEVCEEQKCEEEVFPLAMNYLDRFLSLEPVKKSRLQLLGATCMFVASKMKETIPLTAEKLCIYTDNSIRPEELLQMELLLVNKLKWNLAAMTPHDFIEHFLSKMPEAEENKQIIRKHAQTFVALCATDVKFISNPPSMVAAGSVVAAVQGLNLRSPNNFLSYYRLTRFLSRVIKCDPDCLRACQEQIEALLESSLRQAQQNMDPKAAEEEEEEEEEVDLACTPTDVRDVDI
The purpose of CDK4/Cyclin D1 assay is to evaluate the inhibition (% inhibition and IC50 values) of small molecule inhibitors by using a Chelation-Enhance Fluorescence (CHEF) assay. In a CHEF assay, phosphorylation of a peptide substrate results in proportional increase in fluorescence. CHEF kinase assay use peptide substrates containing a synthetic alpha-amino acid with a side chain bearing an 8-hydroxyquinoline derivative (sulfonamido-oxide, Sox). Upon phosphorylation of a nearby serine, threonine or tyrosine and in the presence of Mg(II), the spectral properties of the Sox residue are altered, emitting 485 nm wavelength light when excited with a 360 nm wavelength light source. CDK4/Cyclin D1 catalyzes the phosphoryl transfer to the SOX-labeled substrate peptide AQT0258 from Assayquant Technologies. […] The reaction was initiated with the addition of substrate solution, following a 30-minute pre-incubation of enzyme and inhibitor at 22° C. in the reaction mix. Reactions were allowed to proceed for 3 hrs at 22° C., followed by fluorescence read of the reaction. The IC50 determinations were made from a plot of the fractional velocity as a function of inhibitor concentration fit to the 4 parameters IC50 equation.

Chain of CDK1/Cyclin B1 (P06493 whole entry): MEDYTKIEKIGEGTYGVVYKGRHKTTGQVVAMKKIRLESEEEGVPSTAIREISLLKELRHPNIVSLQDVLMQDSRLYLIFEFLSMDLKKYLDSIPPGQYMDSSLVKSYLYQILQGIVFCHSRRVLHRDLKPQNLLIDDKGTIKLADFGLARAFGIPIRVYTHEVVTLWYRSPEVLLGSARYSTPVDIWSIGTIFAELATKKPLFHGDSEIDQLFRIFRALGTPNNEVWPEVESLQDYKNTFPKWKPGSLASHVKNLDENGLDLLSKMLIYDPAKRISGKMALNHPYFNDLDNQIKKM
Chain of CDK1/Cyclin B1 (P14635 whole entry partner): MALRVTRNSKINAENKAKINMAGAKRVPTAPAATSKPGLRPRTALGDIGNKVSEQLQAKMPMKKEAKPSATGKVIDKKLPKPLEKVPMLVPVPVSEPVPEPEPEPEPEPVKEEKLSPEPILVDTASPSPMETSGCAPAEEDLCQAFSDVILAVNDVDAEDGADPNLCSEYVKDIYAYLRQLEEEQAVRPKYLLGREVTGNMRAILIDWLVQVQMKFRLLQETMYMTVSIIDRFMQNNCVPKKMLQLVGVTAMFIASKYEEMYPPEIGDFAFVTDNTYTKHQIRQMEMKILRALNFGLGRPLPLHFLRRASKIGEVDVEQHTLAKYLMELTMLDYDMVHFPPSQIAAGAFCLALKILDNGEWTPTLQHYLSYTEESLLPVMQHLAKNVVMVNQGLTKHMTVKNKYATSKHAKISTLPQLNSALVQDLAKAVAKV
Chain of CDK6/Cyclin D3 (Q00534 whole entry): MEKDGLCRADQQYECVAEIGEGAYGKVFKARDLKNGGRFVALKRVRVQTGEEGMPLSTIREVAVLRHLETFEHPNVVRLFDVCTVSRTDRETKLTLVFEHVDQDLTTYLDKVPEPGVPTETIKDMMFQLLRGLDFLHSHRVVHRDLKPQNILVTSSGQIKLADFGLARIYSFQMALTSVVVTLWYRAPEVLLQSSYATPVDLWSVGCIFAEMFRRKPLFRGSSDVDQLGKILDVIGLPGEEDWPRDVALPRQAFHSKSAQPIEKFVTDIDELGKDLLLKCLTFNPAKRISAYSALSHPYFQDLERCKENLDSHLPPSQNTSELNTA
Chain of CDK6/Cyclin D3 (P30281 whole entry partner): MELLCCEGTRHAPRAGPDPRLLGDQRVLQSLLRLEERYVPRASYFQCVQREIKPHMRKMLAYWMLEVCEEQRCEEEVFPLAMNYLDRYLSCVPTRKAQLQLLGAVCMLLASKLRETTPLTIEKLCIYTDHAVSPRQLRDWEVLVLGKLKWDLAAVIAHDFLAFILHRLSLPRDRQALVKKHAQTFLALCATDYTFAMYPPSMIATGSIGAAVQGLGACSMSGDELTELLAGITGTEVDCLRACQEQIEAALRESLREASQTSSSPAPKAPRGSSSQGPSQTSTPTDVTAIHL

Regarding `CN1Cc2ccc(Nc3ncc4ccnc(N5CCC6(CCN(S(C)(=O)=O)C6)C5)c4n3)cc2C1` (stereo not shown) [Compound 23, N-(2-methylisoindolin-5-yl)-8-(7-(methylsulfonyl)-2,7-diazaspiro[4.4]nonan-2-yl)pyrido[3,4-d]pyrimidin-2-amine], the IC50 is 500 to 2000 nM on CDK1/Cyclin B1; < 200 nM at CDK6/Cyclin D3; < 200 nM in the test on OVCAR-3 cells; < 200 nM with MCF-7 cells; < 200 nM at CDK2/Cyclin E1; < 200 nM on CDK4/Cyclin D1.
Take `CN1Cc2ccc(Nc3ncc4ccnc(N5CC6(C5)CS(=O)(=O)C6)c4n3)cc2C1` [Compound 24, 6-(2-((2-methylisoindolin-5-yl)amino)pyrido[3,4-d]pyrimidin-8-yl)-2-thia-6-azaspiro[3.3]heptane 2,2-dioxide]: the IC50 is 500 to 2000 nM at CDK1/Cyclin B1; < 200 nM on CDK6/Cyclin D3; 500 to 2000 nM in the test with OVCAR-3 cells; 500 to 2000 nM with MCF-7 cells; < 200 nM at CDK2/Cyclin E1; < 200 nM at CDK4/Cyclin D1.
On to `Cc1cc2cnc(Nc3cnn(C4CC5(C4)CN(C)C5)c3)nc2c(N2CC3(C2)CN(S(C)(=O)=O)C3)n1` [Compound 26, 6-methyl-N-(1-(2-methyl-2-azaspiro[3.3]heptan-6-yl)-1H-pyrazol-4-yl)-8-(6-(methylsulfonyl)-2,6-diazaspiro[3.3]heptan-2-yl)pyrido[3,4-d]pyrimidin-2-amine], for which the IC50 on CDK1/Cyclin B1 was > 2000 nM; on CDK6/Cyclin D3, 500 to 2000 nM; with OVCAR-3 cells it was > 2000 nM; with MCF-7 cells, > 2000 nM; at CDK2/Cyclin E1, 200 to 500 nM; at CDK4/Cyclin D1, 200 to 500 nM.
Take `Cc1cc2cnc(Nc3ccc4c(c3)CN(S(C)(=O)=O)C4)nc2c(N2CC3(CN(C)C3)C2)n1` [Compound 27, 6-methyl-8-(6-methyl-2,6-diazaspiro[3.3]heptan-2-yl)-N-(2-(methylsulfonyl)isoindolin-5-yl)pyrido[3,4-d]pyrimidin-2-amine]: the IC50 at CDK1/Cyclin B1 is 500 to 2000 nM; at CDK6/Cyclin D3, 500 to 2000 nM; with OVCAR-3 cells, 500 to 2000 nM; in the test on MCF-7 cells it was > 2000 nM; at CDK2/Cyclin E1, < 200 nM; at CDK4/Cyclin D1 it was 500 to 2000 nM.
Consider `Cc1cc2cnc(NC3CCN(S(C)(=O)=O)CC3)nc2c(N2CC3(CNCC3C(F)F)C2)n1` (stereo not shown) [Compound 100, 8-(8-(difluoromethyl)-2,6-diazaspiro[3.4]octan-2-yl)-6-methyl-N-(1-(methylsulfonyl)piperidin-4-yl)pyrido[3,4-d]pyrimidin-2-amine], for which the IC50 at CDK1/Cyclin B1, at CDK6/Cyclin D3, on CDK2/Cyclin E1 and at CDK4/Cyclin D1 was < 200 nM each time.
`Cc1cc2cnc(NC3CCN(S(C)(=O)=O)CC3)nc2c(N2CC3(CN(C)CC3(F)F)C2)n1` [Compound 101, 8-(8,8-difluoro-6-methyl-2,6-diazaspiro[3.4]octan-2-yl)-6-methyl-N-(1-(methylsulfonyl)piperidin-4-yl)pyrido[3,4-d]pyrimidin-2-amine]: the IC50 is 200 to 500 nM on CDK1/Cyclin B1, < 200 nM on CDK6/Cyclin D3, < 200 nM on CDK2/Cyclin E1 and < 200 nM at CDK4/Cyclin D1.
Regarding `Cc1cc2cnc(NC3CCN(S(=O)(=O)C4CC4)CC3)nc2c(N2CC(F)(F)C3(CN(C)C3)C2)n1` [Compound 102, N-(1-(cyclopropylsulfonyl)piperidin-4-yl)-8-(8,8-difluoro-2-methyl-2,6-diazaspiro[3.4]octan-6-yl)-6-methylpyrido[3,4-d]pyrimidin-2-amine], the IC50 at CDK1/Cyclin B1, at CDK6/Cyclin D3, at CDK2/Cyclin E1 and on CDK4/Cyclin D1 was < 200 nM throughout.
`[2H]C([2H])([2H])N1CC2(CN(c3nc(C)cc4cnc(NC5CCN(S(C)(=O)=O)CC5)nc34)CC2(F)F)C1` [Example 12, 8-(8,8-difluoro-2-(methyl-d3)-2,6-diazaspiro[3.4]octan-6-yl)-6-methyl-N-(1-(methylsulfonyl)piperidin-4-yl)pyrido [3,4-d]pyrimidin-2-amine]: the IC50 on CDK1/Cyclin B1, at CDK6/Cyclin D3, on CDK2/Cyclin E1 and on CDK4/Cyclin D1 was < 200 nM in each case.
`O=S(=O)(C1CC1)N1CCC(Nc2ncc3cc(C(F)F)nc(N4CC5(CCNC5)C4)c3n2)CC1` [Example 46]: the IC50 is < 200 nM on CDK1/Cyclin B1; < 200 nM on CDK6/Cyclin D3; 500 to 2000 nM in the test with OVCAR-3 cells; 500 to 2000 nM with MCF-7 cells; < 200 nM at CDK4/Cyclin D1.
`Cc1cc2cnc(NC3CCN(S(C)(=O)=O)CC3)nc2c(C2CC(O)(C3CC3)C2)n1` (stereo not shown) [Example 88, 1-cyclopropyl-3-(6-methyl-2-((1-(methylsulfonyl)piperidin-4-yl)amino)pyrido[3,4-d]pyrimidin-8-yl)cyclobutan-1-ol]: the IC50 on CDK1/Cyclin B1 was 200 to 500 nM; on CDK6/Cyclin D3, < 200 nM; at CDK2/Cyclin E1 it was < 200 nM; on CDK4/Cyclin D1, < 200 nM.
